Broadly, the IC50 is the concentration that gives 50% inhibition.

Data on 2 molecules can be found in ChEMBL document CHEMBL5725285, “Pyrrole six-membered heteroaryl ring derivative, preparation method thereof, and medicinal uses thereof” (2016).

For assay [1], the target named is T1, Tyrosine-protein kinase JAK3 (Homo sapiens, UniProt P52333).
T1 sequence (P52333 whole entry): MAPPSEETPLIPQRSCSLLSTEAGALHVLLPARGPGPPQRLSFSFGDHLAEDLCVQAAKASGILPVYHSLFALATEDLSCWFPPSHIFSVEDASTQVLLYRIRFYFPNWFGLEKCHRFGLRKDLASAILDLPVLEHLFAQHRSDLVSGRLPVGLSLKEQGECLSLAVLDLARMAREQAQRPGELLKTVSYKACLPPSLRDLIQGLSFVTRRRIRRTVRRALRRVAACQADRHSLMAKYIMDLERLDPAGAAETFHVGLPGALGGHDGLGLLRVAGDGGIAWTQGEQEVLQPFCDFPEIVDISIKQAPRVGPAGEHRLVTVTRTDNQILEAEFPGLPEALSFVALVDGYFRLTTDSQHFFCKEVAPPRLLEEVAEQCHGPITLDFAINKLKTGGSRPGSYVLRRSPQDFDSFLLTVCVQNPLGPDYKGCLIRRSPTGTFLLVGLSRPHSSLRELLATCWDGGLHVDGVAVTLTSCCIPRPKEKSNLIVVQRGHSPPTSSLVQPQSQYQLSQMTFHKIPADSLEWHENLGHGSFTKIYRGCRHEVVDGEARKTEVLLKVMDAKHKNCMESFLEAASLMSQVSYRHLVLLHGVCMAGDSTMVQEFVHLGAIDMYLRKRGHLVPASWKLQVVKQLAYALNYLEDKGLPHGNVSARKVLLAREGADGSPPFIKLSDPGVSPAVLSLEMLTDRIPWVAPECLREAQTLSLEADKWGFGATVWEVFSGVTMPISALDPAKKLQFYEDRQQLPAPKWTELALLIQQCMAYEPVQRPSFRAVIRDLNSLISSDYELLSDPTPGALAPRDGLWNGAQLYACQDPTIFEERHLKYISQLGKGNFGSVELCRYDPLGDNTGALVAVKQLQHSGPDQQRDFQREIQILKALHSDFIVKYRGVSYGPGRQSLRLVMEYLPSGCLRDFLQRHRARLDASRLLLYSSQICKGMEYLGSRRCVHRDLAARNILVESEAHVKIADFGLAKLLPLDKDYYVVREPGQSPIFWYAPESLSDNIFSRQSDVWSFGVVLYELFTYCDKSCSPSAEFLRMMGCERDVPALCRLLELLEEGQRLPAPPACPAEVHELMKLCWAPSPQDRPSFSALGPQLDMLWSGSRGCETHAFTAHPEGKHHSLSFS
In words: In Vitro Kinase Assay: In vitro kinase assays described below can be used to determine the activity of a test compound for inhibiting the activity of JAK3 kinase. The test compounds were dissolved in dimethyl sulfoxide and diluted with water to a serial concentration gradient as required by the experiment. JAK3 substrates (Cell Signaling Technology, Catalog Number: 1305s) and ATP (2 mM) solution ….

In assay [2] the target is T2, Tyrosine-protein kinase JAK1 (Homo sapiens, UniProt P23458). Nature of the assay: JAK1 Kinase Assay: TBDIn vitro kinase assays described below can be used to determine the activity of a test compound for inhibiting the activity of JAK1 kinase. The test compounds were dissolved in dimethyl sulfoxide and diluted with water to a serial concentration gradient as required in the experiment. JAK1 substrates (Cell Signaling Technology, Catalog Number: 1305s) and ATP (2 mM) solution ….
T2 sequence (P23458 whole entry): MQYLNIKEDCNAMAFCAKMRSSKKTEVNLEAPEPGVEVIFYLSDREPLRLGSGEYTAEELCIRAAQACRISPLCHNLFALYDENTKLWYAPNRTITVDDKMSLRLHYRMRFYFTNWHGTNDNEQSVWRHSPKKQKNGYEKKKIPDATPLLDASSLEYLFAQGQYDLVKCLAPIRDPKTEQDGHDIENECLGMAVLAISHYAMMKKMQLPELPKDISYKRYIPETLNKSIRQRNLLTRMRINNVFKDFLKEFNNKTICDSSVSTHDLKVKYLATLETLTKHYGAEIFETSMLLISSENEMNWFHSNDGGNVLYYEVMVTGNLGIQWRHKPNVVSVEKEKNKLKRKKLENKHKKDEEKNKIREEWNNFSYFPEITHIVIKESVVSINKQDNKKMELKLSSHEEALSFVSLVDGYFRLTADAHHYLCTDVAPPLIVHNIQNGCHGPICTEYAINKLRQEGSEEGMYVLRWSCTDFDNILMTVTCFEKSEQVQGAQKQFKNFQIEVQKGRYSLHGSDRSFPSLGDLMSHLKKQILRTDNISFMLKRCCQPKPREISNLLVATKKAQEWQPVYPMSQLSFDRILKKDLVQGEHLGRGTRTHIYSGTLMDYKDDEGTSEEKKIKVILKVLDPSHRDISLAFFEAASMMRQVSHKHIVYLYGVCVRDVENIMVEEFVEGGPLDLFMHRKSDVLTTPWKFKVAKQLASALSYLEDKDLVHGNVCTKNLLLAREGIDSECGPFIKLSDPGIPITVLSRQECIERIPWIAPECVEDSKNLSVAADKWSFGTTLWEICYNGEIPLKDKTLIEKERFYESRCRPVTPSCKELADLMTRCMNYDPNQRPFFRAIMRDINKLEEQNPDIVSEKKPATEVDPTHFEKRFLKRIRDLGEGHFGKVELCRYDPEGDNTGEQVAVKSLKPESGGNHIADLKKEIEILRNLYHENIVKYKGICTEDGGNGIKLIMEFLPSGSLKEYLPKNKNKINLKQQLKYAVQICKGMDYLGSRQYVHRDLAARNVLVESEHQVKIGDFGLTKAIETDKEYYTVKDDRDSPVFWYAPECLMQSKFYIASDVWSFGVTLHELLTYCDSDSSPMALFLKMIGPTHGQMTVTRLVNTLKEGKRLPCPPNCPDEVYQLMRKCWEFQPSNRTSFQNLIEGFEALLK

Assay [3] deals with T2, Tyrosine-protein kinase JAK1. Nature of the assay: IC50 values of test compounds was calculated from the data of the test compounds in inhibiting the activity of JAK1 kinase at different concentrations.

Take `CN(c1ncnc2[nH]ccc12)[C@@H]1C[C@@H]2CCN(C(=O)Nc3nncs3)C[C@@H]2C1`: the figures for the concentration for half-maximal inhibition (IC50) in assay [1] and in assay [2] were 148 nM and 40 nM, respectively.

For `CN(c1ncnc2[nH]ccc12)[C@H]1C[C@@H]2CN(C(=O)[C@H](O)C(F)(F)F)C[C@@H]2C1`, in assay [3], the IC50 is 45 nM.
